Experimental data published in patent publication US20080020995A1, “Use of Cyclodextrin Complexes Containing Lipoic Acid” (priority 2004, published 2008).

Test: Storage stability test of blend formulation (α-lipoic acid content)
Type: physicochemical
Settings: absence of air and light
Description: First, a blend formulation of the following composition was produced: […]
50 g of creatine monohydrate; 20 g of citric acid; 5.0 g of sodium carbonate; 15 g of sodium bicarbonate; 5.0 g of lemon aroma; 0.5 g of aspartame; 0.5 g of acesulfame K; 4.0 g of magnesium hydroxide
To this blend were added 0.2% by weight of α-lipoic acid and 1.67% by weight of a racemic α-lipoic acid/α-cyclodextrin complex, respectively. The preparations obtained in each case were packaged in the absence of air and light and stored at 20° C. and 40° C.

- α-Lipoic acid content of the blend (20° C., 1 month): 0.19 % by weight
- α-Lipoic acid content of the blend (20° C., 2 months): 0.17 % by weight
- α-Lipoic acid content of the blend (20° C., 3 months): 0.16 % by weight
- α-Lipoic acid content of the blend (20° C., 6 months): 0.14 % by weight
- α-Lipoic acid content of the blend (20° C., 9 months): 0.12 % by weight
- α-Lipoic acid content of the blend (20° C., 12 months): 0.1 % by weight
- α-Lipoic acid content of the blend (40° C., 1 month): 0.16 % by weight
- α-Lipoic acid content of the blend (40° C., 2 months): 0.11 % by weight
- α-Lipoic acid content of the blend (40° C., 3 months): 0.09 % by weight
- α-Lipoic acid content of the blend (40° C., 6 months): 0.06 % by weight
- α-Lipoic acid content of the blend (40° C., 9 months): 0.03 % by weight
- α-Lipoic acid content of the blend (40° C., 12 months): 0 % by weight
Structure (SMILES): O=C(O)CCCCC1CCSS1 (racemic) [ALA, 1,2-dithiacyclopentane-3-valeric acid]
